Test results taken from patent publication US12466839B2, “Allosteric AKT inhibitors for use in the treatment of Hereditary Hemorrhagic Telangiectasia” (VADERIS THERAPEUTICS AG, priority 2020, dated 2025).

Assays:
PTH1 = molecular target: T1, PTH1 (Homo sapiens, UniProt Q03431); experiment: Millipore Drug Discovery Safety and Liability Panel; format: cell-based
T1 construct: Millipore

A1 = molecular target: T2, A1 (Homo sapiens, UniProt P30542); experiment: as above; format: cell-based
T2 construct: purchased Millipore

p42/p44 (MAPK pathway) = experiment: p42/p44 phosphorylation in primary lung endothelial cells (selectivity control); format: cell-based, mouse; conditions: control for selectivity
Procedure: ECs were seeded in six-well plates and allowed to grow to 90% confluence. Cells were then washed with PBS and serum starved for six hours. […] Cells were washed with cold PBS and then lysed in RIPA Buffer (50 mM Tris-HCl pH 7.4, 150 mM NaCl, 1 mM Ethylene diamine tetra-acetic acid (EDTA), 1% Triton X-100, 0.1% Sodium Dodecyl Sulfate (SDS), 0.5% deoxycholate) containing protease and phosphatase inhibitors (PPC1010, Sigma-Aldrich).
Samples were boiled for 10 min and proteins were separated on 10% acrylamide gel and transferred onto nitrocellulose membrane before blocking with 5% BSA or 5% powdered milk/Tris-buffered saline/Tween and incubated with the following primary antibodies: rabbit anti-Phospho-Akt1 (Ser473) (44-621G, Invitrogen), rabbit anti-Akt1 (2938S, Cell Signaling), rabbit anti-PhosphoSmad1/5 (Ser463/465) (9516S, Cell Signaling), rabbit anti-Smad1 (6944S, Cell Signaling), mouse anti-Phospho-p44/42 MAPK (Thr202/Tyr204) (E10) (9106S, Cell signaling), rabbit p44/42 MAPK (Erk1/2) (9102S, Cell Signaling), goat anti-Endoglin (AF1097, R&D systems) and mouse anti-β-actin (A5441, Sigma-Aldrich). Detection was achieved using HRP anti-rabbit IgG or HRP anti-mouse IgG (W4011 or W4021 respectively, Promega) or HRP anti-goat IgG (HAF017, R&D systems) followed by scanning on BIO-RAD ChemiDoc imager. […]

Thrombin-activated PARs = experiment: Millipore Drug Discovery Safety and Liability Panel; format: cell-based; conditions: 10 μM
LPA3 = molecular target: T3, LPA3 (Homo sapiens, UniProt Q9UBY5); experiment: as above; format: cell-based
T3 construct: purchased Millipore

GPR109A = molecular target: T4, GPR109A (Homo sapiens, UniProt Q8TDS4); experiment: as above; format: cell-based
T4 construct: purchased Millipore

Motilin = molecular target: T5, Motilin (Homo sapiens, UniProt O43193); experiment: as above; format: cell-based
T5 construct: purchased Millipore

AKT3 = AKT3 (Homo sapiens, UniProt Q9Y243); experiment: Panel of 450 kinases; format: biochemical
P2Y1 = molecular target: T6, P2Y1 (Homo sapiens, UniProt P47900); experiment: Millipore Drug Discovery Safety and Liability Panel; format: cell-based
T6 construct: Millipore

[1] = test system: angiogenesis in C57Bl/6J mice retinas; experiment: Neonatal retinal angiogenesis model in wild-type mice; format: in vivo, mouse (C57Bl/6J); conditions: 2.5 mg·kg−1
Description: For the retinal vascular network, quantification of the number of AV shunts per mouse was done manually. […] A custom own-lab made macro allowed automatic processing of the images, using the same processing and quantification parameters. Briefly, the brightness of the images was enhanced by modifying the pixel extreme values, which depends on the specific image histogram content. A Gaussian filter was applied to reduce the intensity in homogeneities. The filter order depended on the image resolution. Next, the threshold step was computed, based on a global threshold technique such as Otsu's method or Li's method, resulting in binary image. A median filter was then applied to eliminate potential local irregularities, which could cause false branching point detection. From the binary images, the vascular density was quantified (calculated as the ratio of pixels associated with the vessels divided by the total number of pixels in the image). For the other parameters, a skeleton of the images was first computed using ImageJ, then the total vascular length was quantified using the Measure Skeleton Length plug-in from ImageJ. The number of branch points was extracted from the Analyze Skeleton plug-in of ImageJ. All results were transferred to Microsoft Office Excel software and automatically rearranged using a lab custom-made program. As all images generated at each step of the processing were saved, a visual control was made to ensure that there were no aberrant results.
Statistical analysis was performed with Prism 7 software (GraphPad). For most of the experiments, 1-way ANOVA was used for multiple comparisons. Results are expressed as mean±SEM. For post hoc pairwise, the Dunnett's test was used. A value of *P<0.05, **P<0.01, ***P<0.001 or ****P<0.0001 denotes statistical significance. An in-group variation of around 15% in parameters related to blood vessel architecture changes has been previously observed by the inventors, therefore a difference between controls and mutant mice of around 20-30% was anticipated. It was therefore expected that a group of 8 mice per condition would reveal statistical differences.
Eyes were fixed in 4% paraformaldehyde (PFA) in PBS at room temperature for 10 min, retinas were dissected, post-fixed in 4% PFA in PBS at 4° C. overnight then processed for immunostaining. Retinas were permeabilized in PBS, 1% BSA and 0.5% Triton X-100 at 4° C. overnight, rinsed in PBS, washed twice in PBlec (PBS, pH 6.8, 1% Triton-X-100, 0.1 mM CaCl2, 0.1 mM MgCl2, 0.1 mM MnCl2), and then incubated in biotinylated Griffonia simplicifolia lectin (isolectin B4) (B-1205, Vector Laboratories, 1:50) in PBlec at 4° C. overnight. After 5 washes in PBS, samples were incubated with streptavidin Cy-3 (PA43001, Sigma-Aldrich, 1:100) and with a-SMA (clone 1A4) (F3777, Sigma-Aldrich) conjugated with FITC diluted in PBS, 0.5% BSA, and 0.25% X-100 at 4° C. for 2 h. After washing, flat whole-mount retinas were mounted in DAKO medium (S3023, Dako). Complete high-resolution 3-dimensional rendering of whole-mount retinas was acquired using Laser Scanning Microscope SP5 or SP8 (Leica).

AKT = AKT inhibition in primary lung endothelial cells with complete loss of Eng expression (western blot); format: cell-based; conditions: Endothelial cell; lung mouse endothelial cells with complete loss of Eng expression; VEGF-A stimulation
NK3 = molecular target: T7, NK3 (Homo sapiens, UniProt P29371); experiment: Millipore Drug Discovery Safety and Liability Panel; format: cell-based
T7 construct: purchased Millipore

[2] = read-out: ANTAGONIST mean % inhibition

T7 sequence (P29371 whole entry): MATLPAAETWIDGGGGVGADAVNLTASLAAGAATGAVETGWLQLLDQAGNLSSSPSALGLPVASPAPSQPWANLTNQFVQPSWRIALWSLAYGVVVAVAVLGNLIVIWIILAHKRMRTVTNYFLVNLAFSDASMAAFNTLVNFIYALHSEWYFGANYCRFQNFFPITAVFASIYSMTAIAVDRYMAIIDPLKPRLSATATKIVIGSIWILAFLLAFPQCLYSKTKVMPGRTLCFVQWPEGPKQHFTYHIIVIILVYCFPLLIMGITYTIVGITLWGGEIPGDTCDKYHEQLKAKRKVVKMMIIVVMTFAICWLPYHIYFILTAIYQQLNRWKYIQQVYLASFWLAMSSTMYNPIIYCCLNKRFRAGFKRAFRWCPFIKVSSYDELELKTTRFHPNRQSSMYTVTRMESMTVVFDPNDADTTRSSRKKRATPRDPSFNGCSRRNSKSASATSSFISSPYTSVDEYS
T3 sequence (Q9UBY5 whole entry, species assumed): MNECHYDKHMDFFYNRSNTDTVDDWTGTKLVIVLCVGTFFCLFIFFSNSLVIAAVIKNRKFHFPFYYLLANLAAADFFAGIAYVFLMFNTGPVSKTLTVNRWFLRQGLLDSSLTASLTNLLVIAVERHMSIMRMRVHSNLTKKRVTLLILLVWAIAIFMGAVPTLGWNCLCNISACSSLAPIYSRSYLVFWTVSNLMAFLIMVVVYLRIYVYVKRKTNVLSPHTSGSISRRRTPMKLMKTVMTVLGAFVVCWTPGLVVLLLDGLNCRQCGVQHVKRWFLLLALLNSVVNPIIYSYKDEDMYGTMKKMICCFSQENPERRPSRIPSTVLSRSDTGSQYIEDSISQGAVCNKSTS
T2 sequence (P30542 whole entry): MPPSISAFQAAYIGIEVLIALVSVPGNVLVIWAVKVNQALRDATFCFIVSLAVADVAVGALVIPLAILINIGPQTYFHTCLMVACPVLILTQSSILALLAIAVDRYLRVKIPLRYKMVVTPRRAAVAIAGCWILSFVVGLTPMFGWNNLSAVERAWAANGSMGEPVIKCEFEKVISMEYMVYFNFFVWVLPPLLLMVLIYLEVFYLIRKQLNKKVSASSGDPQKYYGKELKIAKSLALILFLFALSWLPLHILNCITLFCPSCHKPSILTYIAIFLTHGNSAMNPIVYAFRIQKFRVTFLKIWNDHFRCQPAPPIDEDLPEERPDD
T4 sequence (Q8TDS4 whole entry, species assumed): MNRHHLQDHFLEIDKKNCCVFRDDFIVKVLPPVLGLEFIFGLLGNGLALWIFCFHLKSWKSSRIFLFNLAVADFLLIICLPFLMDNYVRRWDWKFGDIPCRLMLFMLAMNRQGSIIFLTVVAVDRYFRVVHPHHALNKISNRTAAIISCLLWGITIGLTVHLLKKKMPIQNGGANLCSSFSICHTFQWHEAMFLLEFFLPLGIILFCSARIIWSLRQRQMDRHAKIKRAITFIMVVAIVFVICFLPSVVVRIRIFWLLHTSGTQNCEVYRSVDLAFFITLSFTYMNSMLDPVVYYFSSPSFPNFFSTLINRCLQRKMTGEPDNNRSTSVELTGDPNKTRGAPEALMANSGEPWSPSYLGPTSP
T5 sequence (O43193 whole entry): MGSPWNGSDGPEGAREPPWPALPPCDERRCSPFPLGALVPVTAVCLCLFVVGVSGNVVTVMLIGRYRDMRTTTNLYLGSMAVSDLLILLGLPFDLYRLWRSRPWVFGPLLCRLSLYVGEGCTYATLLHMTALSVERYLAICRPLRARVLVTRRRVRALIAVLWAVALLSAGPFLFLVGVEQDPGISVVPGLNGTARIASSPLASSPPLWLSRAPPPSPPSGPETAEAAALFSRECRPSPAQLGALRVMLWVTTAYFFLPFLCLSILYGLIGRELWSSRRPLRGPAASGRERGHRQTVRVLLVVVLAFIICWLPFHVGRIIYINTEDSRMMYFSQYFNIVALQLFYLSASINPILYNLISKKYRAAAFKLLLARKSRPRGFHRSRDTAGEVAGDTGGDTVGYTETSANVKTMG
T6 sequence (P47900 whole entry, species assumed): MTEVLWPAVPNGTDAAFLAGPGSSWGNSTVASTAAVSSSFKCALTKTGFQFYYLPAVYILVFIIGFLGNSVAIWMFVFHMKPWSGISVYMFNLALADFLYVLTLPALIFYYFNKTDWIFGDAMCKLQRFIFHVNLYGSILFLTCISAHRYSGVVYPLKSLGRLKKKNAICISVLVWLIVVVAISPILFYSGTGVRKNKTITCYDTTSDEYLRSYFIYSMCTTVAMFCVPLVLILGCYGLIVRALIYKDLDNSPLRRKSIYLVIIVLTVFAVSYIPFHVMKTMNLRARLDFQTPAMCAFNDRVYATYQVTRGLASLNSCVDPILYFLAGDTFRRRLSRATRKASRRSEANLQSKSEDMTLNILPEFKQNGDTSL
T1 sequence (Q03431 27-593): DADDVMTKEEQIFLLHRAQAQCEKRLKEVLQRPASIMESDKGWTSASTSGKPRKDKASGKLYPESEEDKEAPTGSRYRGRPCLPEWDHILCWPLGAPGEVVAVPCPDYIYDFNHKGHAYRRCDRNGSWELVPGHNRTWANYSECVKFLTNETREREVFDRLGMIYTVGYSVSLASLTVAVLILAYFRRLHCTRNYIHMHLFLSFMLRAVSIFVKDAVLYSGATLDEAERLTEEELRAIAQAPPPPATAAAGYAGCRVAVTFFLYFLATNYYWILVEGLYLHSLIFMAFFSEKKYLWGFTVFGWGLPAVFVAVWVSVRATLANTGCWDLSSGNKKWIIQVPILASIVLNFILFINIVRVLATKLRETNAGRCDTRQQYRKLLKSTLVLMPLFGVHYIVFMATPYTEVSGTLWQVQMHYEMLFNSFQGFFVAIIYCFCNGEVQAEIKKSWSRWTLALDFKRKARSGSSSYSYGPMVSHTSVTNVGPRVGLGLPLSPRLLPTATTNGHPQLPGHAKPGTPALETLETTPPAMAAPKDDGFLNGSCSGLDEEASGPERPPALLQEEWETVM
Chain of AKT3 (Q9Y243 whole entry): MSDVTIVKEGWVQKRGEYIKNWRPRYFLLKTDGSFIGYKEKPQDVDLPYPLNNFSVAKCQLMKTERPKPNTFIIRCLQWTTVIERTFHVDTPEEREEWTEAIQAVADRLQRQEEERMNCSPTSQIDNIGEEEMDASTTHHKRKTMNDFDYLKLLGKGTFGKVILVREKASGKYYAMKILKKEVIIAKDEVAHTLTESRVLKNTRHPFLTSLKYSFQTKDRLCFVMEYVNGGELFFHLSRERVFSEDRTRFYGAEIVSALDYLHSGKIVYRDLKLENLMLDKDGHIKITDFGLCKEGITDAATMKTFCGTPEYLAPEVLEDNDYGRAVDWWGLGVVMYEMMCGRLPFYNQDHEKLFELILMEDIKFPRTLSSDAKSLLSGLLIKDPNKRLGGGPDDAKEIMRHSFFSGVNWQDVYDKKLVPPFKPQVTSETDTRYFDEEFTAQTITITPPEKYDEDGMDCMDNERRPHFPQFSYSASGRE

Work on `CCN1C(=O)COc2nc(-c3ccc(C4(N)CC(O)C4)cc3)c(-c3ccccc3)cc21.O=C(O)C(O)C(O)C(=O)O` [VAD044, 6-(4-(1-amino-3-hydroxycyclobutyl)phenyl)-1-ethyl-7-phenyl-1H-pyrido[2,3-b][1,4]oxazin-2(3H)-one L-tartrate] yielded an activation at 10 µM (PTH1; PTH1, 10 μM, read-out: AGONIST mean % increase in activity) of -1.1%, an inhibition at 10 µM (PTH1; [2]) of -2.5% and an activation at 10 µM (A1; A1, 10 μM, read-out: AGONIST mean % increase in activity) of 0%. The inhibition at 10 µM (A1; [2]) was 7.7%, the “impact on the MAPK pathway (p42/p44 phosphorylation)” value (p42/p44 (MAPK pathway)) was “no impact on the MAPK pathway” and the “AGONIST mean % increase in activity” value (Thrombin-activated PARs) was 0%. The “ANTAGONIST mean % inhibition” value (Thrombin-activated PARs) was −1.2%, the activation at 10 µM (LPA3; LPA3, 10 μM, read-out: AGONIST mean % increase in activity) was -0.7% and the inhibition at 10 µM (LPA3; [2]) was -0.2%. The activation at 10 µM (GPR109A; GPR109A, 10 μM, read-out: AGONIST mean % increase in activity) was -0.7%, the inhibition at 10 µM (GPR109A; [2]) was 3.1% and the activation at 10 µM (Motilin; read-out: AGONIST mean % increase in activity) was -0.3%. For the same molecule, the inhibition at 10 µM (Motilin; [2]) was 50%, the inhibition at 10 µM (AKT3) was 72% and the “AGONIST mean % increase in activity” value (P2Y1; 10 μM) was 1%. The inhibition at 10 µM (P2Y1; [2]) was 50.6%, the “impact on normal angiogenesis” value [1] was “little or no impact on normal angiogenesis” and the IC50 (AKT) was 93 nM. For the same molecule, the activation at 10 µM (NK3; NK3, 10 μM, read-out: AGONIST mean % increase in activity) was -0.4% and the inhibition at 10 µM (NK3; [2]) was 16.9%.
